Data as given in ChEMBL document CHEMBL3526078, “Pharmacokinetics and hepatic uptake of eltrombopag, a novel platelet-increasing agent” (Drug Metab Dispos, 2011).
In brackets after ≈: the same amount, converted by molar mass.

Experiments:
Hepatocyte [1] = experiment: Drug uptake in mouse hepatocytes at pH 6.5; format: ADME, cell-based
Hepatocyte [2] = experiment: Drug uptake in mouse hepatocytes at 37 degC up to 5 mins; format: ADME, cell-based
Hepatocyte [3] = experiment: Drug uptake in mouse hepatocytes in presence of GABA; format: ADME, cell-based
Hepatocyte [4] = experiment: Drug uptake in mouse hepatocytes in presence of TPeA; format: ADME, cell-based
[5] = Clearance in Sprague-Dawley rat urine at 1 mg/kg, iv; format: ADME, organism-based; parameters: dose 1 mg/kg, route intravenous
Liver = experiment: Tissue uptake clearance in bile duct cannulated Sprague-Dawley rat liver at 1 mg/kg, iv by integration plot analysis; format: ADME, organism-based; parameters: dose 1 mg/kg, route intravenous; details: in vivo
Hepatocyte [6] = experiment: Drug uptake in mouse hepatocytes in presence of rifampicin OATP inhibitor; format: ADME, cell-based
[7] = Total clearance in pdzk1(-/-) mouse at 1 mg/kg, iv; format: ADME, organism-based; parameters: dose 1 mg/kg, route intravenous; details: in vivo
[8] = Volume of distribution at steady state in Sprague-Dawley rat at 1 mg/kg, iv; format: ADME, organism-based; parameters: dose 1 mg/kg, route intravenous; details: in vivo, read-out: Vdss
[9] = Total clearance in Sprague-Dawley rat at 1 mg/kg, iv; format: ADME, organism-based; parameters: dose 1 mg/kg, route intravenous; details: in vivo
[10] = Total clearance in bile-duct cannulated Sprague-Dawley rat at 1 mg/kg, iv in presence of 20 mg/kg rifampicin (reference value: 34.3 +/- 3.9 ml/h/kg); format: ADME, organism-based; details: in vivo
[11] = Total clearance in bile duct cannulated Sprague-Dawley rat at 1 mg/kg, iv; format: ADME, organism-based; parameters: dose 1 mg/kg, route intravenous; details: in vivo
[12] = target: T1, Organic cation/carnitine transporter 2 (Homo sapiens, UniProt O76082); experiment: Inhibition of OCTN2-mediated [14C]carnitine uptake in human OCTN2 expressing HEK293/PDZK1 cells by scintillation counting; format: cell-based
T1 sequence (O76082 whole entry): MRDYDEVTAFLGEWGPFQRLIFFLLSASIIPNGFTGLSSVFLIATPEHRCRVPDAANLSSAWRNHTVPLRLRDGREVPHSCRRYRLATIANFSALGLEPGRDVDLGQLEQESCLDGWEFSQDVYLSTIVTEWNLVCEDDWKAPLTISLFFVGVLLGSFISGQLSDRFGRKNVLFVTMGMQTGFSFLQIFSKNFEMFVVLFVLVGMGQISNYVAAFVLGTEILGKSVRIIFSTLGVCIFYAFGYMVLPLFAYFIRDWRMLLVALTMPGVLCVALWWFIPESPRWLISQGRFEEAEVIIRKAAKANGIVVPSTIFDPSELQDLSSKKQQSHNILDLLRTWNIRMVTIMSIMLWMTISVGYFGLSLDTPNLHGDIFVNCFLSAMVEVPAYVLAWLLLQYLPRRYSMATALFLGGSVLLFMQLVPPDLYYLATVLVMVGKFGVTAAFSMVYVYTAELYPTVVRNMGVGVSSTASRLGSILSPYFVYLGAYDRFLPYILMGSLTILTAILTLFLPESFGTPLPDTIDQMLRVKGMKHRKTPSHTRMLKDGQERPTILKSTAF

[13] = Solubility of the compound; format: physicochemical
[14] = target: T2, Solute carrier family 22 member 1 (Homo sapiens, UniProt O15245); experiment: Inhibition of OCT1-mediated [14C]tetraethylammonium uptake in human OCT1 expressing HEK293/PDZK1 cells by scintillation counting; format: ADME, cell-based
T2 sequence (O15245 whole entry): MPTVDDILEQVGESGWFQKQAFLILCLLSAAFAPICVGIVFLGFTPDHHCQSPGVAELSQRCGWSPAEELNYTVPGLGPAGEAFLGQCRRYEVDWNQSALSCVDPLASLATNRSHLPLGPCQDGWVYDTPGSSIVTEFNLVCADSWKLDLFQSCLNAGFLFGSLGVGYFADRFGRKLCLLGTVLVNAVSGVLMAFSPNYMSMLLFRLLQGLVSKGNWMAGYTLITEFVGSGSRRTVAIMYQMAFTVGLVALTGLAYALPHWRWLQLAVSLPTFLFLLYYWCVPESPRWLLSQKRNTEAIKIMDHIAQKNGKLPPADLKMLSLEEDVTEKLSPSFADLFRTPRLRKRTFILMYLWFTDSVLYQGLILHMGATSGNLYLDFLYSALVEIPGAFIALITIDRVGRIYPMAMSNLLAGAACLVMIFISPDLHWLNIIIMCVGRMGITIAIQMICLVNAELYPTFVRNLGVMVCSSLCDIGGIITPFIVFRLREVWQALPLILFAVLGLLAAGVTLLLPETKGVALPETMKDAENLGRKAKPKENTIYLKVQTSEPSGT

[15] = Drug metabolism in human urine assessed as oxidized metabolites at 50 mg, po single dose; format: ADME, organism-based; details: in vivo
[16] = target: T3, Solute carrier organic anion transporter family member 2B1 (Homo sapiens, UniProt O94956); experiment: Inhibition of OATP2B1-mediated [3H]estrone-3-sulfate uptake in human OATP2B1 expressing HEK293/PDZK1 cells by scintillation counting; format: ADME, cell-based
T3 sequence (O94956 whole entry): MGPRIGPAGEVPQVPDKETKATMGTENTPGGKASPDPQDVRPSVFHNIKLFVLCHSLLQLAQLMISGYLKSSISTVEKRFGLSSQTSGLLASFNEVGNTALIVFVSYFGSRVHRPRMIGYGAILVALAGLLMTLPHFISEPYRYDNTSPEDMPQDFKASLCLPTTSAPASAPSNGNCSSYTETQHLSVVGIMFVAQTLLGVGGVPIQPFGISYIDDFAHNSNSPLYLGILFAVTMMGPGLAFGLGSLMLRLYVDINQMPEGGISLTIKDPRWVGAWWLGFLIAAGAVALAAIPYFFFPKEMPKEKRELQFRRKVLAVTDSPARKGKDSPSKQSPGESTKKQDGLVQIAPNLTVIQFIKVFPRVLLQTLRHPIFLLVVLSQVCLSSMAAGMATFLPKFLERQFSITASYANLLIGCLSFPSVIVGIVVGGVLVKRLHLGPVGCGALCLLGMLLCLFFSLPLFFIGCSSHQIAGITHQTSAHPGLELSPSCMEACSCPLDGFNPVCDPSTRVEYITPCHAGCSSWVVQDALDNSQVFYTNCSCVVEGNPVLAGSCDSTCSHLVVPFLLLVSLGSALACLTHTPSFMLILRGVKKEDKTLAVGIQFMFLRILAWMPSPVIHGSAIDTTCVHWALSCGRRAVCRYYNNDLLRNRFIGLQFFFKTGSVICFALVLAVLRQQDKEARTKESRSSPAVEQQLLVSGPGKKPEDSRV

[17] = Drug metabolism in human feces assessed as oxidized metabolites at 50 mg, po single dose; format: ADME, organism-based; details: in vivo
Hepatocyte [18] = experiment: Drug uptake in mouse hepatocytes at pH 7.4; format: ADME, cell-based
Hepatocyte [19] = experiment: Drug uptake in mouse hepatocytes in absence of Cl-; format: ADME, cell-based
Kidney = experiment: Drug uptake in mouse kidney at 1 mg/kg, iv in presence of 30 umol/kg TPeA; format: ADME, organism-based; parameters: dose 1 mg/kg, route intravenous; details: in vivo

Drug uptake (Hepatocyte [1]): Active
Drug uptake (Hepatocyte [2]): Active
Drug uptake (Hepatocyte [3]): Not Active
Drug uptake (Hepatocyte [4]): Not Active
CL renal [5]: < 0.00117 mL/min/kg
CLup (Liver): 0.747 mL/min/kg
Drug uptake (Hepatocyte [6]): Not Active
clearance [7]: 0.92 mL/min/kg
Vd [8]: 0.287 L/kg
clearance [9]: 0.55 mL/min/kg
clearance [10]: 0.335 mL/min/kg
clearance [11]: 0.572 mL/min/kg
inhibition (INH) [12]: Not Active
solubility [13]: 200 µM (≈ 88.5 µg/mL)
Ki [14]: 103 µM
inhibition (INH) ([14]; human, hek293/pdzk1): Active
Drug excretion [15]: 31%
Ki [16]: 8.48 µM
inhibition (INH) ([16]; human, hek293/pdzk1): Active
Drug excretion [17]: 59%
Drug uptake (Hepatocyte [18]): Active
Drug uptake (Hepatocyte [19]): Active
Drug uptake (Kidney): Active
Compound: CC1=NN(c2ccc(C)c(C)c2)C(=O)/C1=N\Nc1cccc(-c2cccc(C(=O)O)c2)c1O [ELTROMBOPAG]
